{"source": "paper PMC5880945", "about": "“D-Arg^0-Bradykinin-Arg-Arg, a Latent Vasoactive Bradykinin B2 Receptor Agonist Metabolically Activated by Carboxypeptidases” (Frontiers in Pharmacology, 2018)", "molecules": {"B1": {"name": "D-Arg^0-BK-Arg-Arg (peptide)", "peptide": "[dR]RPPGFSPFRRR", "notes": "D-Arg^0, N-terminal extension (a D-residue); bradykinin, whole nonapeptide; Arg-Arg, C-terminal extension; also called r-BK-RR; D-Arg^0-Bradykinin-Arg-Arg; source: synthetic peptide (CanPeptide, Inc., solid-phase, ≥98.3% pure)"}, "B2": {"name": "D-Arg^0-BK (peptide)", "peptide": "[dR]RPPGFSPFR", "notes": "D-Arg^0, N-terminal extension (a D-residue); bradykinin, whole nonapeptide; also called r-BK; D-Arg^0-bradykinin; source: synthetic peptide (CanPeptide, Inc., solid-phase, ≥98.3% pure)"}}, "key": {"[1]": {"test_system": "GFP-tagged rabbit B2R (B2R-GFP)", "experiment": "B2R-GFP endocytosis and recycling, epifluorescence microscopy, HEK 293 cells", "assay_type": "cell-based", "conditions": "30 min vs 3 h of stimulation"}, "anesthetized rats [2]": {"test_system": "anesthetized rats", "set-up": "method as in 2 sources, one per row (each row's own in cited_ref): ref Jean et al., 2016; Charest-Morin et al., 2017 ||| ref Jean et al., 2016", "conditions": "intravenous boluses; ref Jean et al., 2016; Charest-Morin et al., 2017; cited from earlier work"}, "[3]": {"test_system": "ACE (two separate catalytic sites)", "conditions": "ref Araujo et al., 2000; cited from earlier work", "excerpt": "The source of enzyme was whole HEK 293a cells grown in 24-well plates and transfected as described with a vector coding for the human ACE-mCherry fusion protein, an active enzyme ([Charest-Morin an ..."}, "anesthetized rats [4]": {"test_system": "anesthetized rats", "experiment": "In vivo hemodynamics in anesthetized rats pretreated with icatibant or peptidase inhibitors", "set-up": "species or system male Sprague-Dawley rats", "conditions": "for Mean arterial blood pressure, basal after pre-treatment / Heart rate, basal after pre-treatment: 15 min after i.v. pretreatment, mean ± SEM, n = 10 icatibant, 9 enalaprilat, 8 Plummer’s, 10 combination; for Mean arterial blood pressure, basal after pre-treatment: untreated control 93.2 ± 3.3 (n = 13), ANOVA N.S.; for Heart rate, basal after pre-treatment: untreated control 352 ± 10 (n = 13), ANOVA P < 0.001, * icatibant, ** others", "procedure": "All surgical and experimental procedures were reviewed and approved by the Animal Care and Handling Committee of Laval University, in accordance with the Canadian Council on Animal Care. Experiments were performed on male Sprague-Dawley rats (300–375 g) purchased from Charles River Laboratories (St-Constant, QC, Canada). The rats were housed in a light-controlled (12:12-h light-dark cycle (lights on at 0600)) and temperature-regulated room (22 ± 1°C). Animals had free access to normal chow diet and tap water. They were allowed to acclimate to their environmental conditions for 1 week prior to being studied. At the end of the acclimation period, the rats were anesthetised with sodium pentobarbital (50 mg kg^-1, i.p., supplemented as required) and had one catheter implanted into the right jugular vein [for intravenous (i.v.) injection] and one into the left femoral artery [for direct and continuous measurement of blood pressure and heart rate as previously described ([Jean et al., 2016])]. Experiments started at least 20 min following the end of surgery in anesthetised rats.\nThe mechanism subserving the cardiovascular responses to random i.v. injections of r-BK and r-BK-RR at the dose of 1.6 μg/kg, was evaluated in rats pretreated with specific antagonists. In these experiments, the rats were separated in four groups depending on the antagonist tested, and the cardiovascular responses to the peptides agonists were compared with those elicited in the untreated control group of rats. In the first group of treated rats, the long acting and selective B2R antagonist, icatibant (Hoe 140) (D-Arg-[Hyp^3, Thi^5, D-Tic^7, Oic^8]) bradykinin ([Hock et al., 1991]; [Wirth et al., 1991]; [Rhaleb et al., 1992]; [Marceau et al., 1994]) was intravenously administered as bolus (75 μg/kg, 0.1 ml) following a 10 min period of baseline measurements of heart rate and blood pressure. Fifteen minutes later, recording changes in blood pressure and heart rate elicited by i.v. injection of peptide vehicle (saline-BSA 0.1%) followed by random injections of r-BK and r-BK-RR, were made as described above. The next peptide was administered once all recorded cardiovascular parameters had returned to baseline after the previous injection. Further experiments were made in a second group of rats pretreated with the ACE inhibitor, enalaprilat. In these experiments, enalaprilat was intravenously administered as bolus ([…], 0.1 ml) 15 min before the i.v. injections of peptide vehicle and both customized peptides, as above. Further experiments were also carried out in rats pretreated with the Plummer’s inhibitor (mercaptomethyl-3-guanidinoethylthiopropanoic acid) a high affinity inhibitor of arginine carboxypeptidases that is an arginine analog ([Plummer and Ryan, 1981]). The inhibitor was intravenously administered as bolus (0.75 mg/kg, 0.1 ml) followed 15 min later by the i.v. injections of saline-BSA 0.1%, and then r-BK and -r-BK-RR (1.6 μg/kg) in random order. A fourth group of rats was pretreated with a combined i.v. injection of enalaprilat (0.1 mg/kg) and the Plummer’s inhibitor (0.75 mg/kg) 15 min before the randomized i.v. injections of both customized peptides, as above. The doses of different inhibitors were based on preliminary experiments and from previous studies performed by us and others ([Ishida et al., 1989]; [Wirth et al., 1991]; [Muto et al., 2003]; [Jean et al., 2016]). At the end of the experiments the rats were euthanized with an overdose of sodium pentobarbital (240 mg/kg, i.v.).\nResults are presented as means ± SEM. Radioligand binding data were fitted by non-linear regression to a one-site competition equation using a least-square method (Prism 5.0, GraphPad Software Inc., San Diego, CA, United States) and IC50 values calculated from this procedure. […]"}, "[5]": {"test_system": "human ACE-mCherry fusion protein", "experiment": "Competition of a fluorogenic ACE substrate by synthetic kinins (recombinant ACE-mCherry)", "assay_type": "biochemical", "conditions": "enalaprilat 1 μM; 15 min, 37°C; fluorescence", "procedure": "The source of enzyme was whole HEK 293a cells grown in 24-well plates and transfected as described with a vector coding for the human ACE-mCherry fusion protein, an active enzyme ([Charest-Morin and Marceau, 2016]). The culture medium was removed from cell wells, which were rinsed twice with PBS. The fluorogenic substrate (final concentration 20 μM), and, optionally, a competitor (BK, r-BK, or r-BK-RR in variable concentrations, or the ACE inhibitor enalaprilat 1 μM) were added in 250 μl PBS in each well; the plates were then incubated for 15 min at 37°C. At this point, the well supernatants were transferred in Eppendorf tubes, centrifuged 30 s at 12500 rpm to remove debris and 100 μl of this fluid transferred in wells of 96-well plate (black background) to read the fluorescence (excitation 320 nm, emission 420 nm) using a TECAN Infinite® 200 PRO microplate reader. Results were expressed as the percent of the fluorescence in wells containing ACE-mCherry and the substrate without competitors. Controls included mock-transfected cells and enalaprilat-treated cells."}, "[6]": {"target": "T1, endogenous B2R of the human isolated umbilical vein (human (endogenous in umbilical vein), UniProt P30411 1-391)", "T1 sequence (looked up)": "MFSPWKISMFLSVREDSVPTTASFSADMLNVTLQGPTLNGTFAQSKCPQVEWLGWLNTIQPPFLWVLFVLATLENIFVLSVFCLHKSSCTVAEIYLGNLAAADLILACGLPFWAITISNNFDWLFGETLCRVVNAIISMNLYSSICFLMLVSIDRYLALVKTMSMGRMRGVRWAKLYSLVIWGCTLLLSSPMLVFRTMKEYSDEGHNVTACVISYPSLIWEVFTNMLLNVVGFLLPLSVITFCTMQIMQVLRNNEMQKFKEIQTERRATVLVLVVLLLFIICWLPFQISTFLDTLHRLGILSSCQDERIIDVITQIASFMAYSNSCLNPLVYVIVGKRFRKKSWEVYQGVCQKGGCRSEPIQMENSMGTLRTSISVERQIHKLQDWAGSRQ", "experiment": "cell-based or functional assay"}, "[7]": {"target": "T2, myc-tagged rat B2R construction (rat, UniProt P25023 1-396)", "T2 construct": "bradykinin B2 receptor, rat; also called rat myc-B2R; rat recombinant myc-B2R; source: HEK 293 cells stably expressing the construction, adherent intact cells", "T2 sequence (looked up)": "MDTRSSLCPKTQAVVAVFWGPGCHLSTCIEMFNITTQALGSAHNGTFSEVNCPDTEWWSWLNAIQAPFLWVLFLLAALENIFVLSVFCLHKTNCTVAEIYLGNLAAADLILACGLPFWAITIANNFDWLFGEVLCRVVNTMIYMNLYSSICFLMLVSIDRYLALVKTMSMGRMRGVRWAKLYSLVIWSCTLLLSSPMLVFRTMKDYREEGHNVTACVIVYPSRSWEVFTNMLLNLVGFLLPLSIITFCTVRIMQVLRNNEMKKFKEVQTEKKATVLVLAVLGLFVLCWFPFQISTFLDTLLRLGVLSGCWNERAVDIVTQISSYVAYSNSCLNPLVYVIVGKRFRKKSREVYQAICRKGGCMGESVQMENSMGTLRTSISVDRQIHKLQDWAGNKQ", "experiment": "radioligand binding; competition of the binding of 3 nM [^3H]BK to adherent intact HEK 293 cells stably expressing myc-tagged rat B2R by unlabeled peptides; 0°C; peptidase inhibitors including captopril and PMSF; one-site competition fit", "conditions": "one partner purified"}}, "note": "Entries after “also recorded” stand apart in the source; their conditions may differ. Square brackets hold non-standard residues; d marks the D form. Ends that are not written are not given here."}
{"molecule": "D-Arg-[Hyp^3, Igl^5, Oic^7, Igl^8]-BK [B-9972, reference compound]", "values": [{"measurement": "persistence of B2R-GFP endocytosis, in words", "setting": "[1]", "result": "persistent morphologic response; also recorded: prolonged endocytosis of B2R-GFP"}, {"measurement": "duration of action vs BK in vivo, in words", "setting": "anesthetized rats [2]", "result": "not remarkably more longer acting than BK in vivo"}]}
{"molecule": "Abz-Phe-Arg-Lys(Dnp)-Pro-OH [internally quenched fluorogenic ACE substrate]", "values": [{"measurement": "affinity for the two catalytic sites of ACE, in words", "setting": "[3]", "result": "approximately equal low micromolar affinity"}]}
{"molecule": "N=C(N)NCCSCC(CS)C(=O)O", "note": "(stereo not shown) [Plummer’s inhibitor, mercaptomethyl-3-guanidinoethylthiopropanoic acid, reference compound]", "values": [{"measurement": "Mean arterial blood pressure, basal after pre-treatment", "setting": "anesthetized rats [4]", "result": "90.3 ± 3.6"}, {"measurement": "Heart rate, basal after pre-treatment", "setting": "anesthetized rats [4]", "result": "407 ± 10^∗∗"}]}
{"molecule": "C[C@H](N[C@@H](CCc1ccccc1)C(=O)O)C(=O)N1CCC[C@H]1C(=O)O", "note": "[Enalaprilat, enalaprilat, reference compound]", "values": [{"measurement": "hydrolysis of ACE substrate by ACE-expressing cells treated with inhibitor, in words", "setting": "[5]", "result": "did not catalyze the reaction"}, {"measurement": "Mean arterial blood pressure, basal after pre-treatment", "setting": "anesthetized rats [4]", "result": "89.8 ± 4.1"}, {"measurement": "Heart rate, basal after pre-treatment", "setting": "anesthetized rats [4]", "result": "412 ± 11^∗∗"}]}
{"molecule": "D-Arg-[Hyp3,Thi5,D-Tic7,Oic8]bradykinin [Icatibant, reference compound]", "values": [{"measurement": "Mean arterial blood pressure, basal after pre-treatment", "setting": "anesthetized rats [4]", "result": "93.7 ± 3.3"}, {"measurement": "Heart rate, basal after pre-treatment", "setting": "anesthetized rats [4]", "result": "396 ± 10^∗"}, {"measurement": "inhibition of hypotensive effects of r-BK and r-BK-RR, in words", "setting": "anesthetized rats [4]; icatibant i.v. pretreatment, r-BK or r-BK-RR 1.6 μg/kg i.v.", "result": "their effects were inhibited by icatibant"}]}
{"molecule": "B1", "values": [{"measurement": "contractile EC50, human isolated umbilical vein, with enalaprilat 1 μM (ACE blockade)", "setting": "[6]", "result": 1510, "unit": "nM"}, {"measurement": "contractile EC50, human isolated umbilical vein, with enalaprilat 1 μM + Plummer’s inhibitor 1 μM (ACE blockade)", "setting": "[6]", "result": 1760, "unit": "nM"}, {"measurement": "IC50", "setting": "[7]", "result": 1050, "unit": "nM"}]}
{"molecule": "B2", "values": [{"measurement": "contractile EC50, human isolated umbilical vein, control", "setting": "[6]", "result": 62.4, "unit": "nM"}, {"measurement": "contractile EC50, human isolated umbilical vein, with Plummer’s inhibitor 1 μM", "setting": "[6]", "result": 68.4, "unit": "nM"}, {"measurement": "contractile EC50, human isolated umbilical vein, with enalaprilat 1 μM", "setting": "[6]", "result": 61.6, "unit": "nM"}, {"measurement": "contractile EC50, human isolated umbilical vein, with enalaprilat 1 μM + Plummer’s inhibitor 1 μM", "setting": "[6]", "result": 45.1, "unit": "nM"}, {"measurement": "IC50", "setting": "[7]", "result": 13.3, "unit": "nM"}]}
